US20250228239A1, “MOLECULES HAVING PESTICIDAL UTILITY, AND INTERMEDIATES, COMPOSITIONS, AND PROCESSES, RELATED THERETO” (priority 2024, published 2025)
Like-named read-outs stand apart in the source and are kept apart here.

Assays:
Type in all cases: in vivo
[1] = system: Yellow Fever Mosquito (Aedes aegypti, AEDSAE); settings: for YFM rating: Table ABC / ABC-DP rating
Procedure, shortened: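 Compounds from DMSO master plates (4000 ppm stock) diluted in 90:10 water/acetone, then dispensed into six replicate plates and infested with ~1-day-old Aedes aegypti larvae in liver-powder water. Held covered at room temperature for 3 days; each well scored for larval mortality and graded on a rating scale.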

[2] = system: Cabbage Looper (Trichoplusia ni, TRIPNI); experiment: Bioassays on Cabbage Looper (CL), 128-well diet tray assay; settings: Trichoplusia ni
Procedure, shortened: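 Diet tray, 2nd instar, 1–5 larvae/well; 50 μg/cm^2 compound surface-applied (acetone:water 90:10), dried; 8 wells/treatment; 25° C, 14:10 L:D, 5–7 d; % mortality, mean of 8 wells.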

[3] = system: Beet Armyworm (Spodoptera exigua, LAPHEG); experiment: Bioassays on Beet Armyworm (BAW), 128-well diet tray assay; settings: Spodoptera exigua
Procedure, shortened: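 Eight diet wells per compound were treated at 50 μg/cm^2 (acetone-water 90:10), dried, then infested with 1–5 second-instar larvae each. After five to seven days at 25 °C under 14:10 photoperiod, mortality was scored and averaged across wells.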

[4] = Yellow Fever Mosquito, rating class
[5] = Cabbage Looper, rating class, read-out: CL
[6] = Beet Armyworm, rating class, read-out: BAW
[7] = Table ABC: Biological Results, species YFM
[8] = Table ABC: Biological Results, species CL, read-out: CL
[9] = Table ABC: Biological Results, species BAW, read-out: BAW
[10] = Cabbage Looper, Table ABC / ABC-DP rating, read-out: CL rating
[11] = Beet Armyworm, Table ABC / ABC-DP rating, read-out: BAW rating

| SMILES | YFM [1, 4] | pest or weed control at 50 µg/cm2 [2, 5] [%] | pest or weed control at 50 µg/cm2 [3, 6] [%] | YFM [1, 7] | pest or weed control at 50 µg/cm2 [2, 8] [%] | pest or weed control at 50 µg/cm2 [3, 9] [%] | also measured |
| --- | --- | --- | --- | --- | --- | --- | --- |
| CC(C#N)C(=O)Nc1c(F)ccc(NC(=O)c2cc(NC(=O)[C@H]3[C@H](c4ccc(F)c(C(F)(F)F)c4)C3(Cl)Cl)ccc2Cl)c1F (stereo partly drawn) [F1755, 2-Chloro-N-(3-(2-cyanopropanamido)-2,4-difluorophenyl)-5-((1R,3R)-2,2-dichloro-3-(4-fluoro-3-(trifluoromethyl)phenyl)cyclopropane-1-carboxamido)benzamide] | B (More than 0 – Less than 80) | 50 to 100 | 50 to 100 | – | – | – | – |
| Nc1ccc(NC(=O)c2cc(NC(=O)[C@H]3[C@H](c4ccc(F)c(Cl)c4)C3(Cl)Cl)ccc2Cl)cc1C(F)(F)F (relative stereo) [F1390, trans-N-(4-Amino-3-(trifluoromethyl)phenyl)-2-chloro-5-(2,2-dichloro-3-(3-chloro-4-fluorophenyl)cyclopropane-1-carboxamido)benzamide] | – | – | – | A (80–100) | 50 to 100 | 50 to 100 | – |
| CNc1c(F)ccc(N(C)C(=O)c2cc(NC(=O)[C@H]3[C@H](c4ccc(Cl)c(Cl)c4)C3(Cl)Cl)ccc2Cl)c1F (relative stereo) [F1071, trans-2-Chloro-5-(2,2-dichloro-3-(3,4-dichlorophenyl)cyclopropane-1-carboxamido)-N-(2,4-difluoro-3-(methylamino)phenyl)-N-methylbenzamide] | – | – | – | A (80–100) | 50 to 100 | 50 to 100 | – |
| O=C(Nc1ccc(F)c(NC(=O)C2CC=CCC2)c1F)c1cc(NC(=O)[C@H]2[C@H](c3ccc(F)c(C(F)(F)F)c3)C2(Cl)Cl)ccc1Cl (stereo partly drawn) [F1297, 2-Chloro-N-(3-(cyclohex-3-ene-1-carboxamido)-2,4-difluorophenyl)-5-((1R,3R)-2,2-dichloro-3-(4-fluoro-3-(trifluoromethyl)phenyl)cyclopropane-1-carboxamido)benzamide] | – | – | – | A (80–100) | 50 to 100 | 50 to 100 | – |
| CC(=O)Nc1cc(F)ccc1NC(=O)c1cc(NC(=O)[C@H]2[C@H](c3cc(Cl)cc(Cl)c3)C2(Cl)Cl)ccc1Cl (relative stereo) [F1637, trans-N-(2-Acetamido-4-fluorophenyl)-2-chloro-5-(2,2-dichloro-3-(3,5-dichlorophenyl)cyclopropane-1-carboxamido)benzamide] | B (More than 0 – Less than 80) | 50 to 100 | 50 to 100 | – | – | – | – |
| Cc1cc(NCCO)ccc1NC(=O)c1cc(NC(=O)[C@H]2[C@H](c3cc(Cl)cc(Cl)c3)C2(Cl)Cl)ccc1Cl (relative stereo) [F1130, trans-2-chloro-5-(2,2-dichloro-3-(3,5-dichlorophenyl)cyclopropane-1-carboxamido)-N-(4-((2-hydroxyethyl)amino)-2-methylphenyl)benzamide] | – | – | – | A (80–100) | 50 to 100 | 50 to 100 | – |
| Nc1c(F)ccc(NC(=O)c2cc(NC(=O)[C@H]3[C@H](c4cc(F)c(Cl)c(C(F)(F)F)c4)C3(Cl)Cl)ccc2Cl)c1F (relative stereo) [F1167, trans-N-(3-Amino-2,4-difluorophenyl)-2-chloro-5-(2,2-dichloro-3-(4-chloro-3-fluoro-5-(trifluoromethyl)phenyl)cyclopropane-1-carboxamido)benzamide] | – | – | – | A (80–100) | 50 to 100 | 50 to 100 | – |
| CCCC(=O)Nc1c(F)ccc(NC(=O)c2cc(NC(=O)[C@H]3[C@H](c4cc(C(F)(F)F)cc(C(F)(F)F)c4)C3(Cl)Cl)ccc2Cl)c1F (relative stereo) [F1806, trans-5-(3-(3,5-bis(Trifluoromethyl)phenyl)-2,2-dichlorocyclopropane-1-carboxamido)-N-(3-butyramido-2,4-difluorophenyl)-2-chlorobenzamide] | – | – | – | – | – | – | YFM rating ([1]; Yellow Fever Mosquito): A (80–100); pest or weed control at 50 µg/cm2 [2, 10]: 50 to 100%; pest or weed control at 50 µg/cm2 [3, 11]: 50 to 100% |
| O=C(Nc1ccc(F)c(NC(=O)[C@H]2CCCO2)c1F)c1cc(NC(=O)[C@H]2[C@H](c3ccc(F)c(C(F)(F)F)c3)C2(Cl)Cl)ccc1Cl [F1691, (R)—N-(3-(2-Chloro-5-((1R,3R)-2,2-dichloro-3-(4-fluoro-3-(trifluoromethyl)phenyl)cyclopropane-1-carboxamido)benzamido)-2,6-difluorophenyl)tetrahydrofuran-2-carboxamide] | B (More than 0 – Less than 80) | 50 to 100 | 50 to 100 | – | – | – | – |
| Nc1ccc(F)c(NC(=O)c2cc(NC(=O)[C@H]3[C@H](c4ccc(F)c(C(F)(F)F)c4)C3(Cl)Cl)ccc2Cl)c1F [F1391, N-(3-Amino-2,6-difluorophenyl)-2-chloro-5-((1R,3R)-2,2-dichloro-3-(4-fluoro-3-(trifluoromethyl)phenyl)cyclopropane-1-carboxamido)benzamide] | – | – | – | A (80–100) | 50 to 100 | 50 to 100 | – |
| O=C(Nc1ccc(F)c(NC(=O)C(F)(F)F)c1F)c1cc(NC(=O)[C@H]2[C@H](c3cc(Cl)cc(Cl)c3)C2(Cl)Cl)cc(F)c1F [F1441, 5-((1R,3R)-2,2-Dichloro-3-(3,5-dichlorophenyl)cyclopropane-1-carboxamido)-N-(2,4-difluoro-3-(2,2,2-trifluoroacetamido)phenyl)-2,3-difluorobenzamide] | A (80–100) | 50 to 100 | 50 to 100 | – | – | – | – |
| Cc1cc(NC(=O)C(F)(F)F)ccc1NC(=O)c1cc(NC(=O)[C@H]2[C@H](c3ccc(Cl)c(Cl)c3)C2(Cl)Cl)ccc1Cl (relative stereo) [F1061, trans-2-Chloro-5-(2,2-dichloro-3-(3,4-dichlorophenyl)cyclopropane-1-carboxamido)-N-(2-methyl-4-(2,2,2-trifluoroacetamido)phenyl)benzamide] | – | – | – | A (80–100) | 50 to 100 | 50 to 100 | – |
| COc1c(F)cc(NC(=O)[C@H]2[C@H](c3ccc(F)c(Cl)c3)C2(Cl)Cl)cc1C(=O)NCCC(F)(F)F (relative stereo) [F2059, trans-5-(2,2-Dichloro-3-(3-chloro-4-fluorophenyl)cyclopropane-1-carboxamido)-3-fluoro-2-methoxy-N-(3,3,3-trifluoropropyl)benzamide] | – | – | – | – | – | – | YFM rating ([1]; Yellow Fever Mosquito): A (80–100); pest or weed control at 50 µg/cm2 [2, 10]: 50 to 100%; pest or weed control at 50 µg/cm2 [3, 11]: 50 to 100% |
| CC(=O)Nc1cc(NC(=O)c2cc(NC(=O)[C@H]3[C@H](c4cc(Cl)c(Cl)c(Cl)c4)C3(Cl)Cl)ccc2F)c(F)cc1F [F1553, N-(5-Acetamido-2,4-difluorophenyl)-5-((1R,3R)-2,2-dichloro-3-(3,4,5-trichlorophenyl)cyclopropane-1-carboxamido)-2-fluorobenzamide] | A (80–100) | 50 to 100 | 50 to 100 | – | – | – | – |
| O=C(NNC(=O)c1cc(NC(=O)[C@H]2[C@H](c3cc(Cl)cc(Cl)c3)C2(Cl)Cl)ccc1Cl)c1ccccn1 (relative stereo) [F2531, trans-2,2-Dichloro-N-(4-chloro-3-(2-picolinoylhydrazine-1-carbonyl)phenyl)-3-(3,5-dichlorophenyl)cyclopropane-1-carboxamide] | – | – | – | – | – | – | YFM rating ([1]; Yellow Fever Mosquito): A (80–100); pest or weed control at 50 µg/cm2 [2, 10]: 50 to 100%; pest or weed control at 50 µg/cm2 [3, 11]: 50 to 100% |
